Measurements taken from patent US11364275B2, “Linear lipopeptide paenipeptins and methods of using the same” (priority 2017, dated 2022).
Where a SMILES comes first, the peptide text is derived from it. [ ]: non-standard residue; d: D form. The star is where a group is joined. Heptanoyl = CCCCCCC(=O)*; Dab = NCC[C@H](N)C(=O)O

How the values were obtained:
[1] = tested on: P. aeruginosa ATCC 27853; format: cell-based, Pseudomonas aeruginosa
From the text: (§1) The surviving cells from each antimicrobial concentration with no visible growth were enumerated by plating on tryptic soy agar (TSA). MBC was defined as the lowest concentration of the antimicrobial agent that led to at least a 99.9% reduction in the number of viable bacterial cells relative to the initial inoculum. There were three independent experiments with one replicate in each experiment.

[2] = tested on: rabbit red blood cells; test: Hemolytic activity; format: cell-based; details: relative to Triton X-100
Procedure: Hemolytic activity was evaluated using defibrinated rabbit blood in a 96-well plate as described previously. A nonionic surfactant Triton X-100, which is capable of lysing red blood cells (RBCs), was used at 0.1% as a positive control. Briefly, rabbit blood (Hardy Diagnostics, Santa Maria, Calif.) was diluted with phosphate buffered saline (PBS; pH 7.2) at a 1:19 ratio (v/v) and free hemoglobin was removed by washing RBCs and centrifugation four times at 1,000×g at 4° C. for 5 min. Aliquots (50 μL) of washed RBCs were incubated with 150 μL two-fold dilutions of paenipeptin analogues at final concentrations of 16-128 μg/mL at 37° C. for 30 min in a microtiter plate (NBS, Corning Inc.). After incubation, treated RBCs were gently mixed by repeated pipetting. Aliquots (20 μL) of the cell suspension were mixed with 200 μL PBS in a new 96-well plate and centrifuged at 2,204×g for 10 min. The supernatant was transferred to a new 96-well plate for absorbance measurement at 415 nm using a Cell Imaging Multimode Reader (Cytation 3, BioTek; Winooski, Vt.). The percent hemolysis observed after exposure to each paenipeptin analogue was calculated relative to Triton X-100.

[3] = tested on: Pseudomonas aeruginosa ATCC 27853; format: cell-based; details: ATCC 27853
Procedure: (§2) The minimum inhibitory concentration (MIC) of paenipeptin analogues was determined using the broth microdilution method (Wirker, M. A. Methods for Dilution Antimicrobial Susceptibility Tests for Bacteria that Grow Aerobically: Approved Standard M07-A8; Clinical and Laboratory Standards Institute, Wayne, Pa., 2009). Seven reference strains (Acinetobacter baumannii ATCC 19606, Escherichia coli ATCC 25922, Klebsiella pneumoniae ATCC 13883, Pseudomonas aeruginosa ATCC 27853, Enterococcus faecium ATCC 19434, Staphylococcus aureus ATCC 29213 and methicillin-resistant S. aureus ATCC 43300) were subjected to MIC testing.
(§3) Paenipeptin analogues were two-fold diluted in tryptic soy broth (TSB; Becton Dickinson) and mixed with an equal volume of bacterial suspensions in TSB containing approximately 1.5×10^5 colony-forming units (CFU)/mL in a clear UV-sterilized 96-well microtiter plate (NBS, Corning Inc., Corning, N.Y.). […] The microtiter plate was incubated at 37° C. for 18-20 h.

[4] = tested on: Enterococcus faecium ATCC 19434; format: cell-based; details: ATCC 19434
Procedure: as §2, §3

[5] = tested on: Staphylococcus aureus ATCC 29213; format: cell-based; details: ATCC 29213
Procedure: as §2, §3

[6] = tested on: Escherichia coli ATCC 25922; format: cell-based; details: ATCC 25922
[7] = tested on: S. aureus ATCC 43300; format: cell-based, Staphylococcus aureus
From the text: as §1

[8] = tested on: S. aureus ATCC 29213; format: cell-based, Staphylococcus aureus
From the text: as §1

[9] = tested on: Acinetobacter baumannii ATCC 19606; format: cell-based; details: ATCC 19606
Procedure: as §2, §3

[10] = tested on: methicillin-resistant S. aureus ATCC 43300; format: cell-based, Staphylococcus aureus; details: ATCC 43300

MIC [3] | MIC [4] | MIC [5] | MIC [6] | MIC [9] | MIC [10] | SMILES | MBC [1] | Hemolysis ([2]; 16 μg/mL) | Hemolysis ([2]; 32 μg/mL) | Hemolysis ([2]; 64 μg/mL) | Hemolysis ([2]; 128 μg/mL) | Minimum inhibitory concentration [5] | Minimum inhibitory concentration [6] | MBC [7] | MBC [8]
2 to 4 µg/mL | 8 to 16 µg/mL | 16 to 32 µg/mL | 1 to 4 µg/mL | 8 to 16 µg/mL |  | CCCCCCC(=O)N[C@@H](CCN)C(=O)N[C@H](C(=O)N[C@@H](CCN)C(=O)N[C@H](Cc1ccccc1)C(=O)N[C@@H](CC(C)C)C(=O)N[C@@H](CCN)C(=O)N[C@H](CC(C)C)C(=O)N[C@@H](CC(C)C)C(=O)N[C@@H](CO)C(N)=O)[C@@H](C)CC [Analogue 5] (Heptanoyl-[Dab]I[Dab][dF]L[Dab][dL]LS-NH2) | 8 to 16 µg/mL | 0.96 ± 0.59% | 1.39 ± 0.55% | 4.86 ± 1.05% | 26.5 ± 4.45% | 16 to 32 µg/mL | 1 to 4 µg/mL | 16 to 32 µg/mL | 16 to 32 µg/mL
2 to 4 µg/mL |  | 16 to 32 µg/mL | 1 to 4 µg/mL |  | 16 to 32 µg/mL | CCCCCCC(=O)N[C@@H](CCN)C(=O)N[C@@H](Cc1ccccc1)C(=O)N[C@@H](CCN)C(=O)N[C@H](Cc1ccccc1)C(=O)N[C@@H](CC(C)C)C(=O)N[C@@H](CCN)C(=O)N[C@H](CC(C)C)C(=O)N[C@@H](CC(C)C)C(=O)N[C@@H](CO)C(N)=O [Analogue 6] (Heptanoyl-[Dab]F[Dab][dF]L[Dab][dL]LS-NH2) | 8 to 16 µg/mL | 0.14 ± 0.20% | 0.39 ± 0.30% | 2.03 ± 0.44% | 8.34 ± 1.80% | 16 to 32 µg/mL | 1 to 4 µg/mL |  | 16 to 32 µg/mL
